Target: cathepsin S (CTSS) (Homo sapiens, UniProt P25774)
Assay: cell-free enzyme assay with recombinant CTSS
Type: biochemical

cathepsin S (CTSS), sequence (P25774 115-331): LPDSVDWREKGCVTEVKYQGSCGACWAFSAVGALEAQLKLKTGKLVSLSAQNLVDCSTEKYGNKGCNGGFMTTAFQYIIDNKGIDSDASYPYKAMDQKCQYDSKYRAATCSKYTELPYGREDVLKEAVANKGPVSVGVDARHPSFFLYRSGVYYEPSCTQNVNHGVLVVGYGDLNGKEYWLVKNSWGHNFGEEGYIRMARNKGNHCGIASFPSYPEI

EC50: 900 nM
Structure (SMILES): CN1CCN(C(=O)N[C@@H](Cc2ccccc2)C(=O)N[C@H](/C=C/S(=O)(=O)c2ccccc2)CCc2ccccc2)CC1 [K11777]
